{"source": "ChEMBL document CHEMBL5614418", "about": "“Discovery of novel dihydropyrrolidone-thiadiazole compound crosstalk between the YycG/F two-component regulatory pathway and cell membrane homeostasis to combat methicillin-resistant Staphylococcus aureus” (Eur J Med Chem, 2024)", "key": {"Staphylococcus aureus [1]": {"test_system": "Staphylococcus aureus", "assay": "Antibacterial activity against methicillin sensitive Staphylococcus aureus SA113 assessed as fold increase in MIC in presence of cardiolipin by chequerboard microdilution assay", "format": "functional"}, "[2]": {"test_system": "Staphylococcus epidermidis", "assay": "Synergistic antibacterial activity against Staphylococcus epidermidis SE1457 in presence of linezolid", "format": "functional, organism-based"}, "[3]": {"test_system": "Staphylococcus epidermidis", "assay": "Antibacterial activity against Staphylococcus epidermidis SE1457 in presence of oleic acid", "format": "functional, organism-based"}, "Staphylococcus aureus [4]": {"test_system": "Staphylococcus aureus", "assay": "Antibacterial activity against methicillin sensitive Staphylococcus aureus SA113 assessed as fold increase in MIC in presence of peptidoglycan by chequerboard microdilution assay", "format": "functional"}, "[5]": {"test_system": "Staphylococcus epidermidis", "assay": "Synergistic antibacterial activity against Staphylococcus epidermidis SE1457 in presence of vancomycin", "format": "functional, organism-based"}, "[6]": {"assay": "Toxicity in BALB/c mouse assessed as change in CREA level at 50 mg/kg, ip measured after 1 to 3 days", "format": "organism-based", "settings": "in vivo, time 1-3 day"}, "Escherichia coli": {"test_system": "Escherichia coli", "assay": "Antibacterial activity against Escherichia coli", "format": "functional, organism-based"}, "Staphylococcus aureus [7]": {"test_system": "Staphylococcus aureus", "assay": "Downregulation of pflA expression level in methicillin sensitive Staphylococcus aureus SA113 at 1/2 MIC incubated for 2 hrs by MS/MS analysis", "format": "functional"}, "Staphylococcus aureus [8]": {"test_system": "Staphylococcus aureus", "assay": "Inhibition of bacterial growth in methicillin sensitive Staphylococcus aureus SA113 at 1/2 MIC concentration measured upto 16 hrs", "format": "functional, organism-based"}, "[9]": {"test_system": "Staphylococcus epidermidis", "assay": "Synergistic antibacterial activity against Staphylococcus epidermidis SE1457 assessed as fractional inhibitory concentration index in presence of daptomycin", "format": "functional"}, "Staphylococcus aureus [10]": {"test_system": "Staphylococcus aureus", "assay": "Antibacterial activity against methicillin sensitive Staphylococcus aureus SA113 by broth microdilution method", "format": "functional"}, "[11]": {"assay": "Toxicity in BALB/c mouse assessed as change in ALT level at 50 mg/kg, ip measured after 1 to 3 days", "format": "organism-based", "settings": "in vivo, time 1-3 day"}, "Staphylococcus aureus [12]": {"test_system": "Staphylococcus aureus", "assay": "Antibacterial activity against methicillin resistant Staphylococcus aureus USA300 infected in BALB/c mouse wound model assessed as log reduction in wound bacterial load at 20 mg/kg, ip administered every 12 hrs for 3 times and measured after 48 hrs", "format": "functional"}, "[13]": {"assay": "Toxicity in BALB/c mouse assessed as change in BUN level at 50 mg/kg, ip measured after 1 to 3 days", "format": "organism-based", "settings": "in vivo, time 1-3 day"}, "[14]": {"assay": "Cytotoxicity against human LX2 cells incubated for 24 hrs by CCK8 assay", "format": "toxicity, cell-based", "settings": "LX-2 cells"}, "[15]": {"test_system": "Staphylococcus epidermidis", "assay": "Antibacterial activity against methicillin resistant Staphylococcus epidermidis SE1457 infected in BALB/c mouse wound model assessed as log reduction in wound bacterial load at 20 mg/kg, ip administered every 12 hrs for 3 times and measured after 48 hrs", "format": "functional"}, "Staphylococcus aureus [16]": {"test_system": "Staphylococcus aureus", "assay": "Induction of matured biofilm eradication in methicillin resistant Staphylococcus aureus YUSA145 assessed as log reduction in bacterial count in biofilm at 8 MIC incubated for 48 hrs in presence of daptomycin by agar plate method", "format": "functional"}, "Staphylococcus aureus [17]": {"test_system": "Staphylococcus aureus", "assay": "Antibacterial activity against methicillin resistant Staphylococcus aureus USA300 infected in BALB/c mouse pneumonia model assessed as increase in mouse survival rate at 20 mg/kg, ip administered every 12 hrs for 3 times and measured after 48 hrs", "format": "functional, organism-based"}, "Staphylococcus aureus [18]": {"test_system": "Staphylococcus aureus", "assay": "Antibacterial activity against methicillin sensitive Staphylococcus aureus SA113 assessed as fold increase in MIC in presence of phosphatidylcholine by chequerboard microdilution assay", "format": "functional"}, "Acinetobacter baumannii": {"test_system": "Acinetobacter baumannii", "assay": "Antibacterial activity against Acinetobacter baumannii", "format": "functional, organism-based"}, "Staphylococcus aureus [19]": {"test_system": "Staphylococcus aureus", "assay": "Antibacterial activity against methicillin sensitive Staphylococcus aureus SA113 assessed as fold increase in MIC in presence of phosphatidyl ethanolamine by chequerboard microdilution assay", "format": "functional"}, "Staphylococcus aureus [20]": {"test_system": "Staphylococcus aureus", "assay": "Induction of matured biofilm eradication in methicillin resistant Staphylococcus aureus YUSA145 assessed as reduction in bacterial survival in biofilm at 8 times MIC incubated for 48 hrs by SYTO 9 staining based confocal fluorescence microscopic analysis", "format": "functional"}, "Staphylococcus aureus [21]": {"test_system": "Staphylococcus aureus", "assay": "Induction of matured biofilm eradication in methicillin resistant Staphylococcus aureus YUSA145 assessed as reduction in bacterial survival in biofilm at 8 times MIC incubated for 48 hrs in presence of daptomycin by SYTO 9 staining based confocal fluorescence microscopic analysis", "format": "functional"}, "Staphylococcus aureus [22]": {"test_system": "Staphylococcus aureus", "assay": "Inhibition of bacterial growth in methicillin resistant Staphylococcus aureus USA300 at 1/2 MIC concentration measured upto 16 hrs", "format": "functional, organism-based"}, "Klebsiella pneumoniae": {"test_system": "Klebsiella pneumoniae", "assay": "Antibacterial activity against Klebsiella pneumoniae", "format": "functional, organism-based"}, "[23]": {"test_system": "Staphylococcus epidermidis", "assay": "Inhibition of biofilm formation in Staphylococcus epidermidis SE1457 at 1/2 MIC incubated for 16 hrs by SEM analysis", "format": "functional, organism-based"}, "[24]": {"assay": "Toxicity in BALB/c mouse assessed as change in Na+ level at 50 mg/kg, ip measured after 1 to 3 days", "format": "organism-based", "settings": "in vivo, time 1-3 day"}, "Staphylococcus aureus [25]": {"test_system": "Staphylococcus aureus", "assay": "Downregulation of pflA gene expression level in methicillin sensitive Staphylococcus aureus SA113 at 1/2 MIC by RT-qPCR analysis", "format": "functional"}, "Staphylococcus aureus [26]": {"test_system": "Staphylococcus aureus", "assay": "Downregulation of intracellular ATP level in methicillin sensitive Staphylococcus aureus SA113 at 1 to 4 times MIC incubated for 30 mins", "format": "functional, cell-based"}, "Enterococcus faecalis": {"test_system": "Enterococcus faecalis", "assay": "Antibacterial activity against Enterococcus faecalis OG1RF by broth microdilution method", "format": "functional"}, "[27]": {"test_system": "Staphylococcus epidermidis", "assay": "Bactericidal activity against Staphylococcus epidermidis SE1457 assessed as planktonic cells killing by measuring log reduction in bacterial count at 2 to 8 times MIC measured after 24 hrs", "format": "functional"}, "[28]": {"test_system": "Staphylococcus epidermidis", "assay": "Antibacterial activity against Staphylococcus epidermidis SE1457 by broth microdilution method", "format": "functional"}, "[29]": {"test_system": "Staphylococcus epidermidis", "assay": "Induction of resistance development in Staphylococcus epidermidis SE1457 assessed as fold increase in MIC at 1/2 MIC incubated for 16 hrs after 20 serial passages", "format": "functional"}, "Pseudomonas aeruginosa": {"test_system": "Pseudomonas aeruginosa", "assay": "Antibacterial activity against Pseudomonas aeruginosa", "format": "functional, organism-based"}, "Staphylococcus aureus [30]": {"test_system": "Staphylococcus aureus", "assay": "Antibacterial activity against methicillin resistant Staphylococcus aureus USA300 by broth microdilution method", "format": "functional"}, "Staphylococcus aureus [31]": {"test_system": "Staphylococcus aureus", "assay": "Antibacterial activity against methicillin resistant Staphylococcus aureus YUSA145", "format": "functional"}, "Staphylococcus aureus [32]": {"test_system": "Staphylococcus aureus", "assay": "Inhibition of biofilm formation in methicillin resistant Staphylococcus aureus YUSA145 at 1/2 MIC incubated for 16 hrs by SEM analysis", "format": "functional, organism-based"}, "Staphylococcus aureus [33]": {"test_system": "Staphylococcus aureus", "assay": "Bactericidal activity against Staphylococcus aureus SA113", "format": "functional"}, "Staphylococcus aureus [34]": {"test_system": "Staphylococcus aureus", "assay": "Antibacterial activity against methicillin resistant Staphylococcus aureus USA300 infected in BALB/c mouse pneumonia model assessed as log reduction in lung bacterial count at 20 mg/kg, ip administered every 12 hrs for 3 times and measured after 48 hrs", "format": "functional"}, "Staphylococcus aureus [35]": {"test_system": "Staphylococcus aureus", "assay": "Induction of matured biofilm eradication in methicillin resistant Staphylococcus aureus YUSA145 assessed as log reduction in bacterial count in biofilm at 8 MIC incubated for 48 hrs by agar plate method", "format": "functional"}, "Staphylococcus aureus [36]": {"test_system": "Staphylococcus aureus", "assay": "Synergistic antibacterial activity against methicillin resistant Staphylococcus aureus USA300 in presence of linezolid", "format": "functional, organism-based"}, "[37]": {"assay": "Toxicity in BALB/c mouse assessed as change in AST level at 50 mg/kg, ip measured after 1 to 3 days", "format": "organism-based", "settings": "in vivo, time 1-3 day"}, "[38]": {"assay": "Hemolytic activity against human erythrocytes measured after 1 hr", "format": "toxicity, cell-based, Erythrocyte"}, "[39]": {"test_system": "Staphylococcus epidermidis", "assay": "Synergistic antibacterial activity against Staphylococcus epidermidis SE1457 assessed as fold increase in MIC in presence of daptomycin", "format": "functional"}, "[40]": {"assay": "Toxicity in BALB/c mouse assessed as change in K+ level at 50 mg/kg, ip measured after 1 to 3 days", "format": "organism-based", "settings": "in vivo, time 1-3 day"}}, "note": "Activity calls are given as the source filed them. The rule behind the calls is not given here."}
{"smiles": "O=C(C1=C(O)C(=O)N(c2nnc(SCc3ccccc3Cl)s2)C1c1ccccc1O)c1cc2ccccc2o1", "note": "(stereo not drawn)", "values": [{"measurement": "fold change (FC)", "setting": "Staphylococcus aureus [1]", "result": 16}, {"measurement": "Activity", "setting": "[2]", "result": "inactive"}, {"measurement": "Activity", "setting": "[3]", "result": "inactive"}, {"measurement": "fold change (FC)", "setting": "Staphylococcus aureus [4]", "result": 16}, {"measurement": "Activity", "setting": "[5]", "result": "inactive"}, {"measurement": "Activity", "setting": "[6]", "result": "Non-Toxic"}, {"measurement": "Activity", "setting": "Escherichia coli", "result": "Active"}, {"measurement": "Activity", "setting": "Staphylococcus aureus [7]", "result": "Active"}, {"measurement": "growth inhibition (GI)", "setting": "Staphylococcus aureus [8]", "result": "Active"}, {"measurement": "fractional inhibitory concentration index (FICI)", "setting": "[9]", "result": "<=0.5"}, {"measurement": "MIC50", "setting": "Staphylococcus aureus [10]", "result": "≥ 50", "unit": "µM"}, {"measurement": "MIC90", "setting": "Staphylococcus aureus [10]", "result": "≥ 50", "unit": "µM"}, {"measurement": "Activity", "setting": "[11]", "result": "Non-Toxic"}, {"measurement": "log(activity)", "setting": "Staphylococcus aureus [12]", "result": 1}, {"measurement": "Activity", "setting": "[13]", "result": "Non-Toxic"}, {"measurement": "CC50 at 24 h", "setting": "[14]", "result": "> 100", "unit": "µM"}, {"measurement": "log(activity)", "setting": "[15]", "result": 1}, {"measurement": "log(activity)", "setting": "Staphylococcus aureus [16]", "result": 3}, {"measurement": "Activity", "setting": "Staphylococcus aureus [17]", "result": "Active"}, {"measurement": "fold change (FC)", "setting": "Staphylococcus aureus [18]", "result": 16}, {"measurement": "Activity", "setting": "Acinetobacter baumannii", "result": "Active"}, {"measurement": "fold change (FC)", "setting": "Staphylococcus aureus [19]", "result": 16}, {"measurement": "Activity", "setting": "Staphylococcus aureus [20]", "result": "<50", "unit": "%"}, {"measurement": "Activity", "setting": "Staphylococcus aureus [21]", "result": ">70", "unit": "%"}, {"measurement": "growth inhibition (GI)", "setting": "Staphylococcus aureus [22]", "result": "Active"}, {"measurement": "Activity", "setting": "Klebsiella pneumoniae", "result": "Active"}, {"measurement": "inhibition", "setting": "[23]", "result": "Active"}, {"measurement": "Activity", "setting": "[24]", "result": "Non-Toxic"}, {"measurement": "Activity", "setting": "Staphylococcus aureus [25]", "result": "Active"}, {"measurement": "Activity", "setting": "Staphylococcus aureus [26]", "result": "Active"}, {"measurement": "MIC50", "setting": "Enterococcus faecalis", "result": "≥ 50", "unit": "µM"}, {"measurement": "MIC90", "setting": "Enterococcus faecalis", "result": "≥ 50", "unit": "µM"}, {"measurement": "log(activity)", "setting": "[27]", "result": 2.7}, {"measurement": "MIC50", "setting": "[28]", "result": "≥ 50", "unit": "µM"}, {"measurement": "MIC90", "setting": "[28]", "result": "≥ 50", "unit": "µM"}, {"measurement": "Activity", "setting": "[29]", "result": "inactive"}, {"measurement": "Activity", "setting": "Pseudomonas aeruginosa", "result": "Active"}, {"measurement": "MIC", "setting": "Staphylococcus aureus [30]", "result": 12.5, "unit": "µM"}, {"measurement": "MIC", "setting": "Staphylococcus aureus [31]", "result": 12.5, "unit": "µM"}, {"measurement": "inhibition", "setting": "Staphylococcus aureus [32]", "result": "Active"}, {"measurement": "MBC", "setting": "Staphylococcus aureus [33]", "result": 25, "unit": "µM"}, {"measurement": "log(activity)", "setting": "Staphylococcus aureus [34]", "result": 2}, {"measurement": "log(activity)", "setting": "Staphylococcus aureus [35]", "result": 1}, {"measurement": "Activity", "setting": "Staphylococcus aureus [36]", "result": "inactive"}, {"measurement": "Activity", "setting": "[37]", "result": "Non-Toxic"}, {"measurement": "HC50 at 1 h", "setting": "[38]", "result": "> 200", "unit": "µM"}, {"measurement": "fold change (FC)", "setting": "[39]", "result": 2}, {"measurement": "Activity", "setting": "[40]", "result": "Non-Toxic"}]}
